In ChEMBL document CHEMBL1201862, “PubChem BioAssay data set” (2004):
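Exposure lasted 48 hours, with cells grown in 96-well plates and compounds tested at five concentrations. At the GI50, growth is halved.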 The source made the active and inactive calls. Cut-off read from the data, not from the text of the source: active = GI50 up to about 1.1 µM and inactive = higher.

Assays:
Assay in all cases: NCI tumour cell line growth inhibition, 48 h
OVCAR-8 = test system: OVCAR-8
MDA-N = test system: MDA-N
UO-31 = test system: UO-31
TK-10 = test system: TK-10
OVCAR-5 = test system: OVCAR-5
SK-MEL-2 = test system: SK-MEL-2
ACHN = test system: ACHN
HOP-92 = test system: HOP-92
DU-145 = test system: DU-145
786-0 = test system: 786-0
U-251 = test system: U-251
COLO 205 = test system: COLO 205
IGROV-1 = test system: IGROV-1
RXF 393 = test system: RXF 393
HCT-116 = test system: HCT-116
M14 = test system: M14
SF-295 = test system: SF-295
UACC-62 = test system: UACC-62
SK-OV-3 = test system: SK-OV-3
HL-60 = test system: HL-60

Measured: GI50

COc1ccc2c(c1)CCc1c-2n(CCN2CCOCC2)c2ccc(OC)cc12
inactive: OVCAR-8 > 100 µM | MDA-N 94.2 µM | UO-31 > 100 µM | TK-10 > 100 µM | OVCAR-5 > 100 µM | SK-MEL-2 > 100 µM | ACHN 82.2 µM | HOP-92 > 100 µM | DU-145 > 100 µM | 786-0 82.8 µM | U-251 > 100 µM | COLO 205 32.8 µM | IGROV-1 80.2 µM | RXF 393 > 100 µM | HCT-116 63.2 µM | M14 28 µM | SF-295 61.4 µM | UACC-62 > 100 µM | SK-OV-3 > 100 µM

C[C@@H]1C(=O)CC2(O)[C@@]13C[C@@H](OC(=O)[C@@H]3O)[C@@H](C)[C@@]21COC1=O (some centres undefined)
inactive: OVCAR-8 > 100 µM | MDA-N > 100 µM | UO-31 > 100 µM | TK-10 > 100 µM | OVCAR-5 > 100 µM | HL-60 > 100 µM | SK-MEL-2 > 100 µM | ACHN > 100 µM | DU-145 > 100 µM | 786-0 > 100 µM | U-251 > 100 µM | COLO 205 > 100 µM | IGROV-1 > 100 µM | RXF 393 > 100 µM | HCT-116 > 100 µM | M14 > 100 µM | SF-295 > 100 µM | UACC-62 > 100 µM | SK-OV-3 > 100 µM

O=C(Nc1ccccc1)c1cc2ccccc2c(/N=N\c2cccc([N+](=O)[O-])c2)c1O
inactive: OVCAR-8 78.2 µM | MDA-N > 100 µM | UO-31 > 100 µM | TK-10 > 100 µM | OVCAR-5 > 100 µM | SK-MEL-2 > 100 µM | ACHN 31 µM | HOP-92 > 100 µM | DU-145 > 100 µM | 786-0 31.3 µM | U-251 24.6 µM | COLO 205 > 100 µM | IGROV-1 37.7 µM | RXF 393 47.8 µM | HCT-116 > 100 µM | M14 > 100 µM | SF-295 > 100 µM | UACC-62 > 100 µM | SK-OV-3 30.3 µM

CC1=C[C@H](O)[C@@]2(C)[C@@H]([C@@H]1C)[C@H]1CC[C@@H]3[C@@]4(C)CC[C@H](O)C(C)(C)[C@@H]4CC[C@@]3(C)[C@]1(C)C[C@@H]2O
inactive: OVCAR-8 20.6 µM | MDA-N 15.8 µM | UO-31 18.6 µM | TK-10 22.2 µM | OVCAR-5 15.6 µM | SK-MEL-2 23.3 µM | HOP-92 13.8 µM | DU-145 16.4 µM | 786-0 14 µM | U-251 20 µM | COLO 205 16.6 µM | IGROV-1 20.5 µM | RXF 393 17.6 µM | HCT-116 12.4 µM | M14 17.1 µM | SF-295 16.1 µM | UACC-62 18.8 µM | SK-OV-3 18.4 µM

O=[N+]([O-])c1cc(Cl)cnc1Br
inactive: OVCAR-8 2.12 µM | MDA-N 3.33 µM | UO-31 1.76 µM | TK-10 3.22 µM | OVCAR-5 3.27 µM | HL-60 3.44 µM | ACHN 2.09 µM | HOP-92 8.75 µM | DU-145 3.71 µM | 786-0 5.83 µM | U-251 2.16 µM | COLO 205 1.34 µM | IGROV-1 2.22 µM | RXF 393 1.52 µM | HCT-116 4.42 µM | M14 3.87 µM | SF-295 3.4 µM | UACC-62 1.93 µM | SK-OV-3 10.3 µM

CC1CC/C(=C\c2ccc(Cl)cc2)C2OC(N)=C(C#N)C(c3ccc(Cl)cc3)=C12 (centres undefined)
inactive: OVCAR-8 13.9 µM | MDA-N 14.7 µM | UO-31 9.31 µM | TK-10 25.7 µM | OVCAR-5 15.9 µM | HL-60 2.88 µM | SK-MEL-2 10.8 µM | ACHN 16.4 µM | DU-145 17 µM | 786-0 13.6 µM | U-251 15.2 µM | COLO 205 12.5 µM | IGROV-1 12.3 µM | RXF 393 14.6 µM | HCT-116 12.6 µM | M14 16.2 µM | UACC-62 16.2 µM | SK-OV-3 18.2 µM

Nc1nc(SCCc2ccccc2)c2nc[nH]c2n1
inactive: OVCAR-8 95.9 µM | MDA-N 55.7 µM | UO-31 60.7 µM | TK-10 19.6 µM | OVCAR-5 72.3 µM | SK-MEL-2 30.7 µM | ACHN 35.7 µM | HOP-92 76.6 µM | DU-145 36.2 µM | 786-0 78.2 µM | U-251 58.5 µM | IGROV-1 51.1 µM | RXF 393 60.4 µM | HCT-116 68.5 µM | M14 71.3 µM | SF-295 71.9 µM | UACC-62 47.5 µM
